According to ChEMBL document CHEMBL1201862, “PubChem BioAssay data set” (2004):
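1) Cells in 96-well plates. 2) Compound, 48 h, 5 concentrations. 3) Linear interpolation between surrounding doses. 4) Unreached endpoint = highest concentration. GI50 = concentration required for 50% inhibition of growth.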 Calls of active or inactive are those of the source. No stated cut-off is given here; in the data, active = GI50 up to about 1.1 µM and inactive = higher.

How the values were obtained:
Test in all cases: growth of human tumour cells (NCI), 48 h
786-0 = system: 786-0
U-251 = system: U-251
SK-OV-3 = system: SK-OV-3
MCF7 = system: MCF7
KM12 = system: KM12
HL-60 = system: HL-60
UO-31 = system: UO-31
HOP-92 = system: HOP-92
NCI-H23 = system: NCI-H23
Malme-3M = system: Malme-3M
NCI-H522 = system: NCI-H522
CAKI-1 = system: CAKI-1
RXF 393 = system: RXF 393
SF-295 = system: SF-295
SF-539 = system: SF-539
Hs-578T = system: Hs-578T
NCI/ADR-RES = system: NCI/ADR-RES
M14 = system: M14
DU-145 = system: DU-145
OVCAR-5 = system: OVCAR-5

Measured: GI50

COC(=O)[C@H](Cc1ccc(OC(C)(C)C)cc1)N[C@H](C)C(=O)N[C@@H](Cc1ccccc1)C(=O)OCc1ccccc1
inactive: 786-0 54.3 µM | U-251 > 100 µM | SK-OV-3 > 100 µM | MCF7 34.5 µM | KM12 83.9 µM | HL-60 45.5 µM | UO-31 14.8 µM | HOP-92 > 100 µM | NCI-H23 > 100 µM | Malme-3M > 100 µM | NCI-H522 > 100 µM | CAKI-1 > 100 µM | RXF 393 > 100 µM | SF-295 > 100 µM | SF-539 > 100 µM | Hs-578T > 100 µM | NCI/ADR-RES > 100 µM | M14 52.4 µM | DU-145 > 100 µM | OVCAR-5 > 100 µM

CCN(CCCl)c1cc(CN(C)C)cc(NC(=O)c2ccc(C(=O)Nc3ccccc3)cc2)c1
inactive: UO-31 1.91 µM | NCI/ADR-RES 2.63 µM
active: 786-0 0.21 µM | U-251 0.25 µM | SK-OV-3 0.971 µM | MCF7 0.232 µM | KM12 1.06 µM | HL-60 0.193 µM | HOP-92 0.414 µM | NCI-H23 0.27 µM | Malme-3M 0.191 µM | NCI-H522 0.109 µM | CAKI-1 0.65 µM | RXF 393 0.152 µM | SF-295 0.348 µM | SF-539 0.647 µM | Hs-578T 0.218 µM | M14 0.883 µM | DU-145 0.415 µM | OVCAR-5 0.836 µM

C[S+](C)C1(c2ccccc2)C(=O)c2ccccc2C1=O
inactive: 786-0 > 100 µM | U-251 22.5 µM | SK-OV-3 > 100 µM | MCF7 > 100 µM | KM12 > 100 µM | HL-60 > 31.6 µM | UO-31 32.1 µM | HOP-92 > 60.8 µM | NCI-H23 > 65.9 µM | Malme-3M > 100 µM | NCI-H522 > 48.8 µM | CAKI-1 > 100 µM | RXF 393 33.3 µM | SF-295 36.1 µM | SF-539 28.7 µM | Hs-578T 24.4 µM | NCI/ADR-RES 24.8 µM | M14 > 59.6 µM | DU-145 > 100 µM | OVCAR-5 > 49.3 µM

CC1=C(O)C(O)=C(C2=C(O)C(O)=C(C)C(=O)C2=O)C(=O)C1=O
inactive: 786-0 41.7 µM | U-251 40.9 µM | SK-OV-3 37.2 µM | MCF7 45.3 µM | KM12 38.5 µM | HL-60 42.9 µM | UO-31 39.1 µM | HOP-92 29.9 µM | NCI-H23 40.7 µM | Malme-3M 20.8 µM | NCI-H522 29.3 µM | CAKI-1 40.7 µM | RXF 393 26.7 µM | SF-295 31.3 µM | SF-539 33 µM | Hs-578T 36.7 µM | NCI/ADR-RES 36 µM | M14 38.5 µM | DU-145 31.3 µM | OVCAR-5 41.6 µM

CCN(CC)Cc1cc(Nc2c3ccccc3nc3c4ccccc4n(C)c23)cc(CN(CC)CC)c1O
inactive: 786-0 3.48 µM | U-251 5.27 µM | SK-OV-3 14.4 µM | MCF7 3.61 µM | KM12 6.58 µM | HL-60 2.31 µM | UO-31 2.12 µM | HOP-92 4.6 µM | NCI-H23 9.64 µM | Malme-3M 2.74 µM | NCI-H522 1.75 µM | CAKI-1 13.5 µM | RXF 393 3.16 µM | SF-295 5.35 µM | SF-539 3.18 µM | Hs-578T 6.22 µM | NCI/ADR-RES 2.91 µM | M14 1.76 µM | DU-145 8.67 µM | OVCAR-5 6.84 µM

CO[C@@H]1[C@H](OC(=O)NC(=O)CCl)CC[C@]2(CO2)[C@H]1[C@@]1(C)O[C@@H]1CC=C(C)C [O-CHLOROACETYLCARBAMOYLFUMAGILLOL]
inactive: 786-0 12.6 µM | U-251 3.08 µM | SK-OV-3 15.3 µM | MCF7 12.4 µM | KM12 11.5 µM | HL-60 2.54 µM | UO-31 9.89 µM | HOP-92 15.6 µM | NCI-H23 15.8 µM | Malme-3M 5.97 µM | NCI-H522 5.35 µM | CAKI-1 11 µM | RXF 393 8.36 µM | SF-295 5.65 µM | SF-539 10.6 µM | Hs-578T 19.9 µM | NCI/ADR-RES 16 µM | M14 5.51 µM | DU-145 12.2 µM | OVCAR-5 17.3 µM

CC(C)(C)N1Cc2ccccc2/C(=C/Sc2ccccc2)C1=O
inactive: 786-0 10.7 µM | U-251 13.6 µM | SK-OV-3 17.4 µM | MCF7 7.19 µM | KM12 17 µM | HL-60 13.5 µM | UO-31 12.3 µM | HOP-92 13.3 µM | NCI-H23 6.84 µM | Malme-3M 13.3 µM | NCI-H522 2.75 µM | CAKI-1 16.6 µM | RXF 393 16.2 µM | SF-295 17.4 µM | SF-539 8.57 µM | Hs-578T 16.7 µM | NCI/ADR-RES 14.1 µM | M14 8.15 µM | DU-145 16.9 µM | OVCAR-5 19.4 µM

CC(C)CC(NC(O)[BH2-][N+](C)(C)C)C(=O)NC(Cc1ccccc1)C(=O)N[C@H]1c2ccsc2/C(=N/O)[C@H]1O (stereo partly drawn)
inactive: 786-0 > 100 µM | U-251 > 100 µM | SK-OV-3 > 100 µM | MCF7 > 100 µM | KM12 > 100 µM | HL-60 > 100 µM | UO-31 > 100 µM | HOP-92 > 100 µM | NCI-H23 > 100 µM | Malme-3M > 100 µM | NCI-H522 > 100 µM | CAKI-1 > 100 µM | RXF 393 > 100 µM | SF-295 > 100 µM | SF-539 > 100 µM | Hs-578T > 100 µM | NCI/ADR-RES > 100 µM | M14 > 100 µM | DU-145 > 100 µM | OVCAR-5 > 100 µM

Cc1nn(C(=O)c2ccc(Cl)cc2)c2c1C(c1ccccc1)SC(=N)N2 (stereo not drawn)
inactive: 786-0 > 10 µM | U-251 > 10 µM | SK-OV-3 > 10 µM | MCF7 > 10 µM | KM12 > 10 µM | HL-60 > 10 µM | HOP-92 > 10 µM | NCI-H23 > 10 µM | Malme-3M > 10 µM | NCI-H522 > 10 µM | CAKI-1 > 10 µM | RXF 393 > 10 µM | SF-295 > 10 µM | SF-539 > 10 µM | Hs-578T > 10 µM | NCI/ADR-RES > 10 µM | M14 > 10 µM | DU-145 > 10 µM | OVCAR-5 > 10 µM

N=C(CSS(=O)(=O)O)NC1CC2CCC1C2 (stereo not drawn)
inactive: 786-0 > 100 µM | U-251 57.8 µM | SK-OV-3 > 100 µM | MCF7 > 100 µM | KM12 > 100 µM | HL-60 > 100 µM | HOP-92 > 100 µM | NCI-H23 > 100 µM | Malme-3M > 100 µM | NCI-H522 > 100 µM | CAKI-1 > 100 µM | RXF 393 > 100 µM | SF-295 76.7 µM | SF-539 > 100 µM | Hs-578T > 100 µM | NCI/ADR-RES > 100 µM | M14 > 100 µM | DU-145 > 100 µM

O=C([O-])C(O)C(O)C(=O)O.[K+] (stereo not drawn) [POTASSIUM HYDROGENTARTRATE]
inactive: 786-0 > 100 µM | U-251 > 100 µM | SK-OV-3 > 100 µM | MCF7 > 100 µM | KM12 > 100 µM | HL-60 > 100 µM | UO-31 > 100 µM | HOP-92 > 100 µM | Malme-3M > 100 µM | NCI-H522 > 100 µM | CAKI-1 > 100 µM | RXF 393 > 100 µM | SF-295 > 100 µM | SF-539 > 100 µM | Hs-578T > 100 µM | NCI/ADR-RES > 100 µM | M14 > 100 µM | DU-145 > 100 µM | OVCAR-5 > 100 µM

CC1(C)OCC(C2OC(On3nnc4ccc(Cl)cc43)C3OC(C)(C)OC23)O1 (stereo not drawn)
inactive: 786-0 > 100 µM | U-251 > 100 µM | SK-OV-3 > 100 µM | MCF7 > 100 µM | KM12 > 100 µM | HL-60 > 100 µM | HOP-92 > 100 µM | NCI-H23 > 100 µM | Malme-3M > 100 µM | NCI-H522 > 100 µM | CAKI-1 > 100 µM | RXF 393 > 100 µM | SF-295 > 100 µM | SF-539 > 100 µM | Hs-578T > 100 µM | NCI/ADR-RES > 100 µM | M14 > 100 µM | DU-145 > 100 µM | OVCAR-5 > 100 µM

CC(=O)N1CCc2c([nH]c3ccc(Br)cc23)C1c1ccccc1 (stereo not drawn)
inactive: 786-0 3.28 µM | U-251 3.69 µM | SK-OV-3 > 7.71 µM | MCF7 2.75 µM | KM12 > 3.41 µM | HL-60 2.55 µM | UO-31 > 10 µM | HOP-92 > 10 µM | Malme-3M > 10 µM | NCI-H522 > 7.82 µM | CAKI-1 > 9.53 µM | RXF 393 > 10 µM | SF-295 2.4 µM | SF-539 > 6.81 µM | Hs-578T > 10 µM | NCI/ADR-RES 4.16 µM | M14 > 10 µM | DU-145 > 10 µM | OVCAR-5 > 10 µM

COc1cc(Nc2nc3cc(C(F)(F)F)ccc3nc2C(=O)O)cc(OC)c1OC
inactive: 786-0 52.8 µM | U-251 36.6 µM | MCF7 66.5 µM | KM12 41.5 µM | HL-60 55.2 µM | UO-31 42.7 µM | HOP-92 29.6 µM | NCI-H23 45.1 µM | Malme-3M 54.1 µM | NCI-H522 30.9 µM | CAKI-1 30.7 µM | RXF 393 28.9 µM | SF-295 27.2 µM | SF-539 43.6 µM | Hs-578T 31.7 µM | NCI/ADR-RES 41.7 µM | M14 40.6 µM | DU-145 35.1 µM | OVCAR-5 > 100 µM
